Assay results: patent US8580829B2 (Boehringer Ingelheim International GmbH, priority 2010, dated 2013)

Assays:
[1] = target: T1, recombinant human FLAP protein (Homo sapiens, UniProt P20292); experiment: FLAP binding assay (Scintillation Proximity Assay, displacement of [125I]L-691,831); conditions: recombinant human FLAP membranes, [125I]L-691,831 probe; read-out: FLAP SPA IC50
T1 construct: made in house; host or cells: Sf9 insect cells (100,000 x g membrane fraction)
T1 sequence (P20292 1-161): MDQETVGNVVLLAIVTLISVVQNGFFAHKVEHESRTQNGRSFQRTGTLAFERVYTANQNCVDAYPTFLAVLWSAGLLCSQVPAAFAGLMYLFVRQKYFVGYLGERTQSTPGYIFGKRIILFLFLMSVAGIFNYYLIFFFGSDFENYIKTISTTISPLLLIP
Summary of the method: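 WGA scintillation proximity beads were stirred 1 h with 5 μg of FLAP-containing membrane protein. The membranes came from baculovirus Sf9 cells, Dounce-lysed and spun to a 100,000×g pellet in buffer at pH 7.5.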

[2] = test system: synthesis of LTB4 in human whole blood; experiment: human whole blood LTB4 production inhibition assay; format: cell-based; conditions: Homo sapiens, heparinized human whole blood, calcimycin 20 μM; read-out: hWB LTB4 IC50
Summary of the method: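 Readout: plasma LTB4 by antibody-based HTRF. Compound added to heparinized human whole blood, 15 min 37° C; calcimycin 20 μM final (PBS pH 7.4), 30 min 37° C; spun 1500×g 5 min, plasma taken.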

Row | Structure (SMILES) | IC50 [1] | IC50 [2]
1 | Nc1ncc(-c2ccc(C3(c4noc(-c5ccc(N6CCC[C@@H]6CO)nc5)n4)CCC3)cc2)cn1 [Example 102, {(R)-1-[5-(3-{1-[4-(2-Amino-pyrimidin-5-yl)-phenyl]-cyclobutyl}-1,2,4-oxadiazol-5-yl)-pyridin-2-yl]-pyrrolidin-2-yl}-methanol] | 2.5 nM | 180 nM
2 | Nc1ncc(-c2ccc(C3(c4noc(-c5ccc(N6CC[C@@H](O)C6)nc5)n4)CCC3)cc2)cn1 [Example 103, (R)-1-[5-(3-{1-[4-(2-Amino-pyrimidin-5-yl)-phenyl]-cyclobutyl}-1,2,4-oxadiazol-5-yl)-pyridin-2-yl]-pyrrolidin-3-ol] | 1.3 nM | 63 nM
3 | Nc1ncc(-c2ccc(C3(c4noc(-c5ccc(N6CCNCC6)cc5)n4)CCC3)cc2)cn1 [Example 104] | 1.3 nM | 99 nM
4 | Nc1ncc(-c2ccc(C3(c4noc(-c5ccc(N6CC[C@H](O)C6)nc5)n4)CCC3)cc2)cn1 [Example 105, (S)-1-[5-(3-{1-[4-(2-Amino-pyrimidin-5-yl)-phenyl]-cyclobutyl}-1,2,4-oxadiazol-5-yl)-pyridin-2-yl]-pyrrolidin-3-ol] | 1.9 nM | 78 nM
5 | CCOC(=O)CCN1CCN(c2ccc(-c3nc(C4(c5ccc(-c6cnc(N)nc6)cc5)CCC4)no3)cn2)CC1 [Example 106, 3-{4-[5-(3-{1-[4-(2-Amino-pyrimidin-5-yl)-phenyl]-cyclobutyl}-1,2,4-oxadiazol-5-yl)-pyridin-2-yl]-piperazin-1-yl}-propionic acid ethyl ester] | 2.7 nM | 130 nM
6 | Nc1ncc(-c2ccc(C3(c4noc(-c5ccc(N6CCS(=O)(=O)CC6)nc5)n4)CCC3)cc2)cn1 [Example 107, 5-[4-(1-{5-[6-(1,1-Dioxo-1λ^6-thiomorpholin-4-yl)-pyridin-3-yl]-1,2,4-oxadiazol-3-yl}-cyclobutyl)-phenyl]-pyrimidin-2-ylamine] | 1.4 nM | 98 nM
7 | CS(=O)(=O)N1CCN(c2ccc(-c3nc(C4(c5ccc(-c6cnc(N)nc6)cc5)CCC4)no3)cn2)CC1 [Example 109, 5-[4-(1-{5-[6-(4-Methanesulfonyl-piperazin-1-yl)-pyridin-3-yl]-1,2,4-oxadiazol-3-yl}-cyclobutyl)-phenyl]-pyrimidin-2-ylamine] | 1.3 nM | 98 nM
8 | CS(=O)(=O)C1CCN(c2ccc(-c3nc(C4(c5ccc(-c6cnc(N)nc6)cc5)CCC4)no3)cn2)C1 (stereo not shown) [Example 110, 5-[4-(1-{5-[6-(3-Methanesulfonyl-pyrrolidin-1-yl)-pyridin-3-yl]-1,2,4-oxadiazol-3-yl}-cyclobutyl)-phenyl]-pyrimidin-2-ylamine] | 0.92 nM | 110 nM
9 | CN(CCO)c1ccc(-c2nc(C3(c4ccc(-c5cnc(N)nc5)cc4)CCC3)no2)nn1 [Example 113, 2-{[6-(3-{1-[4-(2-Amino-pyrimidin-5-yl)-phenyl]-cyclobutyl}-1,2,4-oxadiazol-5-yl)-pyridazin-3-yl]-methyl-amino}-ethanol] | 1.6 nM | 100 nM
10 | Nc1ncc(-c2ccc(C3(c4noc(-c5ccc(NCCN6CCOCC6)nn5)n4)CCC3)cc2)cn1 [Example 115, [6-(3-{1-[4-(2-Amino-pyrimidin-5-yl)-phenyl]-cyclobutyl}-1,2,4-oxadiazol-5-yl)-pyridazin-3-yl]-(2-morpholin-4-yl-ethyl)-amine] | 3.3 nM | 140 nM
11 | Nc1ncc(-c2ccc(C3(c4noc(-c5ccc(N6CCNCC6)nc5)n4)CCC3)cc2)cn1 [Example 116, 5-(4-{1-[5-(6-piperazin-1-yl-pyridin-3-yl)-1,2,4-oxadiazol-3-yl]-cyclobutyl}-phenyl)-pyrimidin-2-ylamine] | 1.8 nM | 150 nM
12 | Cn1cc(-c2nc(C3(c4ccc(-c5cnc(N)nc5)cc4F)CCC3)no2)cn1 [Example 117, 5-(3-Fluoro-4-{1-[5-(1-methyl-1H-pyrazol-4-yl)-1,2,4-oxadiazol-3-yl]-cyclobutyl}-phenyl)-pyrimidin-2-ylamine] | 2.6 nM | 140 nM
13 | CNC(=O)Cn1cccc(-c2nc(C3(c4ccc(-c5cnc(N)nc5)cc4)CCC3)no2)c1=O [Example 118, 2-[3-(3-{1-[4-(2-amino-pyrimidin-5-yl)-phenyl]-cyclobutyl}-1,2,4-oxadiazol-5-yl)-2-oxo-2H-pyridin-1-yl]-N-methyl-acetamide] | 21 nM | 1700 nM
14 | CN(C)C(=O)Cn1cccc(-c2nc(C3(c4ccc(-c5cnc(N)nc5)cc4)CCC3)no2)c1=O [Example 119, 2-[3-(3-{1-[4-(2-Amino-pyrimidin-5-yl)-phenyl]-cyclobutyl}-1,2,4-oxadiazol-5-yl)-2-oxo-2H-pyridin-1-yl]-N,N-dimethyl-acetamide] | 40 nM | 790 nM

Other lines, results leading:

Row | IC50 [1] | IC50 [2] | Structure (SMILES)
15 | 2.4 nM | 160 nM | Nc1ncc(-c2ccc(C3(c4noc(-c5cc[nH]n5)n4)CCC3)cc2)cn1 [Example 93, 5-(4-{1-[5-(1H-Pyrazol-3-yl)-1,2,4-oxadiazol-3-yl]-cyclobutyl}-phenyl)-pyrimidin-2-ylamine]
16 | 6.1 nM | 560 nM | CN(CCO)c1cc(-c2nc(C3(c4ccc(-c5cnc(N)nc5)cc4)CCC3)no2)ccn1 [Example 94, 2-{[4-(3-{1-[4-(2-amino-pyrimidin-5-yl)-phenyl]-cyclobutyl}-1,2,4-oxadiazol-5-yl)-pyridin-2-yl]-methyl-amino}-ethanol]
17 | 3.2 nM | 130 nM | Nc1ncc(-c2ccc(C3(c4noc(-c5ccnc(NCCO)c5)n4)CCC3)cc2)cn1 [Example 95, 2-[4-(3-{1-[4-(2-Amino-pyrimidin-5-yl)-phenyl]-cyclobutyl}-1,2,4-oxadiazol-5-yl)-pyridin-2-ylamino]-ethanol]
18 | 13 nM | 2700 nM | Nc1ncc(-c2ccc(C3(c4noc(-c5nc[nH]n5)n4)CCC3)cc2)cn1 [Example 96, 5-(4-{1-[5-(1H-1,2,4-Triazol-3-yl)-1,2,4-oxadiazol-3-yl]-cyclobutyl}-phenyl)-pyrimidin-2-ylamine]
19 | 2.9 nM | 92 nM | COCCNc1cc(-c2nc(C3(c4ccc(-c5cnc(N)nc5)cc4)CCC3)no2)ccn1 [Example 97, 5-[4-(1-{5-[2-(2-Methoxy-ethylamino)-pyridin-4-yl]-1,2,4-oxadiazol-3-yl}-cyclobutyl)-phenyl]-pyrimidin-2-ylamine]
20 | 2.3 nM | 110 nM | COc1cc(-c2nc(C3(c4ccc(-c5cnc(N)nc5)cc4)CCC3)no2)ccc1O [Example 98, 4-(3-{1-[4-(2-Amino-pyrimidin-5-yl)-phenyl]-cyclobutyl}-1,2,4-oxadiazol-5-yl)-2-methoxy-phenol]
21 | 2 nM | 150 nM | Cc1cc(-c2nc(C3(c4ccc(-c5cnc(N)nc5)cc4)CCC3)no2)ccc1O [Example 99, 4-(3-{1-[4-(2-Amino-pyrimidin-5-yl)-phenyl]-cyclobutyl}-1,2,4-oxadiazol-5-yl)-2-methyl-phenol]
22 | 2.1 nM | 170 nM | Nc1ncc(-c2ccc(C3(c4noc(-c5ccc(O)c(Cl)c5)n4)CCC3)cc2)cn1 [Example 100, 4-(3-{1-[4-(2-Amino-pyrimidin-5-yl)-phenyl]-cyclobutyl}-1,2,4-oxadiazol-5-yl)-2-chloro-phenol]
23 | 3.3 nM | 250 nM | Nc1ncc(-c2ccc(C3(c4noc(-c5ccc(Cl)nc5)n4)CCC3)cc2)cn1 [Example 101, 5-(4-{1-[5-(6-Chloro-pyridin-3-yl)-1,2,4-oxadiazol-3-yl]-cyclobutyl}-phenyl)-pyrimidin-2-ylamine]
24 | 1.3 nM | 110 nM | CS(=O)(=O)CCNc1ccc(-c2nc(C3(c4ccc(-c5cnc(N)nc5)cc4)CCC3)no2)cn1 [Example 108, 5-[4-(1-{5-[6-(2-Methanesulfonyl-ethylamino)-pyridin-3-yl]-1,2,4-oxadiazol-3-yl}-cyclobutyl)-phenyl]-pyrimidin-2-ylamine]
25 | 1.2 nM | 32 nM | COCCNc1ccc(-c2nc(C3(c4ccc(-c5cnc(N)nc5)cc4)CCC3)no2)nn1 [Example 111, [6-(3-{1-[4-(2-amino-pyrimidin-5-yl)-phenyl]-cyclobutyl}-1,2,4-oxadiazol-5-yl)-pyridazin-3-yl]-(2-methoxy-ethyl)-amine]
26 | 1.4 nM | 760 nM | Nc1ncc(-c2ccc(C3(c4noc(-c5ccc(NCCO)nn5)n4)CCC3)cc2)cn1 [Example 112, 2-[6-(3-{1-[4-(2-Amino-pyrimidin-5-yl)-phenyl]-cyclobutyl}-1,2,4-oxadiazol-5-yl)-pyridazin-3-ylamino]-ethanol]
27 | 2.6 nM | 290 nM | CC(C)(O)CNc1ccc(-c2nc(C3(c4ccc(-c5cnc(N)nc5)cc4)CCC3)no2)nn1 [Example 114, 1-[6-(3-{1-[4-(2-Amino-pyrimidin-5-yl)-phenyl]-cyclobutyl}-1,2,4-oxadiazol-5-yl)-pyridazin-3-ylamino]-2-methyl-propan-2-ol]
28 | 9.1 nM | 740 nM | CC(C)(O)CNc1cnc(-c2nc(C3(c4ccc(-c5cnc(N)nc5)cc4)CCC3)no2)cn1 [Example 120, 1-[5-(3-{1-[4-(2-Amino-pyrimidin-5-yl)-phenyl]-cyclobutyl}-1,2,4-oxadiazol-5-yl)-pyrazin-2-ylamino]-2-methyl-propan-2-ol]
29 | 4.9 nM | 450 nM | CC(C)(CO)Nc1cnc(-c2nc(C3(c4ccc(-c5cnc(N)nc5)cc4)CCC3)no2)cn1 [Example 121, 2-[5-(3-{1-[4-(2-Amino-pyrimidin-5-yl)-phenyl]-cyclobutyl}-1,2,4-oxadiazol-5-yl)-pyrazin-2-ylamino]-2-methyl-propan-1-ol]
